Test [1] deals with T1, NiFe-HydABCSL (Acetomicrobium mobile, UniProt I4BYB5).
T1 construct: gene Anamo_1678; native purification from A. mobile, untagged; dimer of heteropentamers (~500 kDa by SEC; 233 kDa per pentamer); with Electron-bifurcating NiFe-hydrogenase subunit HydA; Electron-bifurcating NiFe-hydrogenase subunit HydC (NADH:ubiquinone oxidoreductase 24 kD subunit); NiFe-hydrogenase small subunit HydS; NiFe-hydrogenase large subunit HydL
Kind of test: H2-dependent bifurcation assay, Fd reduction at […] nm. The note with it: 100% H2, 40 µM A. mobile Fd, 1 mM NAD, enzyme retains about 0.35 FMN per mole. Format: biochemical.

Test [2] deals with T1, NiFe-HydABCSL. Kind of test: cryo-EM structure of complex, […] Å. Format: binding. The settings on record: 100 µM FMN with 100 µM NADH and 10 µM A. mobile Fd; site in HydB Rossmann fold, next to B1 [4Fe-4S] cluster; stacked on FMN in HydB; modelled as NAD(H).
Test [3] has as its target T1, NiFe-HydABCSL. In words: H2-dependent bifurcation assay, simultaneous Fd and NAD reduction. The settings on record: 100% H2, 40 µM A. mobile Fd, 10 µM FMN, 1 mM NAD. It counts as biochemical.
The target of test [4] is A. mobile NiFe-HydABCSL hydrogenase (heteropentamer) (A. mobile (endogenous in A. mobile cells)). In words: SEC; HiLoad Superdex 200 prepgrade XK 16/60, 25 mM tris pH 8.0, 300 mM NaCl, 5% glycerol, 2.5% trehalose, anaerobic; decamer to pentamers.
Test [5] has the same target. In words: cryo-EM structure; single-particle cryo-EM of the enzyme as purified, flavin-free apo state, C2 symmetry, 3.2 Å.

With `Cc1cc2nc3c(=O)[nH]c(=O)nc-3n(C[C@H](O)[C@H](O)[C@H](O)COP(=O)(O)OP(=O)(O)OC[C@H]3O[C@@H](n4cnc5c(N)ncnc54)[C@H](O)[C@@H]3O)c2cc1C` [FAD], the “% stimulation” value at NiFe-HydABCSL [1] (FAD concentration not given) is recorded as ~ 10%. As for `Cc1cc2nc3c(=O)[nH]c(=O)nc-3n(C[C@H](O)[C@H](O)[C@H](O)COP(=O)(O)O)c2cc1C` [FMN], the “% stimulation” value on NiFe-HydABCSL [1] (10 µM FMN) is on record as ~ 35%.

For the compound `NC(=O)C1=CN([C@@H]2O[C@H](COP(=O)(O)OP(=O)(O)OC[C@H]3O[C@@H](n4cnc5c(N)ncnc54)[C@H](O)[C@@H]3O)[C@@H](O)[C@H]2O)C=CC1` [NADH], the structure result at NiFe-HydABCSL [2] is “FMN and NADH had well-defined densities in HydB”. Regarding `NC(=O)c1ccc[n+]([C@@H]2O[C@H](COP(=O)(O)OP(=O)(O)OC[C@H]3O[C@@H](n4cnc5c(N)ncnc54)[C@H](O)[C@@H]3O)[C@@H](O)[C@H]2O)c1` [NAD], the turnover result at NiFe-HydABCSL [3] is on record as “NiFe-HydABCSL reduced the Fd only if NAD was also added”.

The term stoichiometry N denotes the number of molecules, sites or subunits per partner or assembly. For “A. mobile NiFe-HydABCSL hydrogenase (heteropentamer) (complex)”, the stoichiometry N in test [4] and in test [5] was 2 throughout.

Source of the values: PMC8880783, “Structure and electron transfer pathways of an electron-bifurcating NiFe-hydrogenase” (Science Advances, 2022).
